Molecules are shown by their SMILES.

For data set [1], the system named is MCF7 cells. The data set is described as follows: Cell viability of MCF7 cells (CellTiter 96 AQueous One). It counts as cell-based, human. As to conditions: 48 hours. Here is the method:
Additionally, the compounds were tested for cell viability. Compounds were plated at 2× in 50 μl MEM in triplicate in a clear 96 well tissue culture plate. A ten point dilution series was used at concentrations—100 μM, 10 μM, 1 μM, 100 nM, […], 1 nM, 0.1 nM, 0.01 nM, 0.0001 nM, 0 (DMSO vehicle only). MCF7 cells (5×10^3) were added in a volume of 50 μl MEM to the appropriate wells, diluting the compounds to 1×. Cells were incubated at 37° C. for 48 hours. 20 μl of CellTiter 96® AQueous One Solution Reagent (Promega) was added to each well and incubated for 3 hours at 37° C. Absorbance was measured at 490 nm using the Perkin Elmer Victor 3V plate reader. Absorbance signals were normalized to DMSO vehicle control and were expressed as percent viable.

Data set [2] deals with human BRCA1 promoter. Kind of data set: BRCA1-luciferase reporter assay (Steady-Glo) in stably transfected MCF7 cells. It counts as cell-based. As to conditions: Homo sapiens, MCF7-BRCA1-luciferase cells, dilution series; for EC50: MCF7, 48 h; for EC90: 48 hours. Here is the method:
Hygromycin selected MCF7 cells were seeded in 384-well tissue culture plates. The first two columns of each plate were empty so as to include established positive and negative controls. Each of the remaining 352 wells contained a compound to be screened. MCF7 cells were incubated with the compounds for 48 hours. Luciferase activity was measured using the Steady Glo Luciferase Assay System (Promega). Briefly, 5×10^6 MCF7 cells were transfected with […] of purified pGL4.14 containing the human BRCA1 promoter (pGL4.14-hBRCA) with Effectene as per manufacturers protocol (Qiagen). Stable transfectants were selected with […] Hygromicin B. 1×10^5 or 2×10^5 stable transfectants were tested for luciferase activity with the Steady-Glo Luciferase Assay System (Promega).
Hygromycin selected MCF-7 cells (e.g., MCF7 clone pGL4.14-hBRCA1.3) stably transfected with the human BRCA1-luciferase reporter construct (e.g., pGL4.14-hBRCA1.3) were seeded in 384-well white tissue culture plates (Becton Dickenson, San Diego, Calif.) at 1×10^4 cells/well. These cells were then stimulated with indicated concentrations of genistein (Sigma-Aldrich, St. Louis, Mo.) for 0, 6, 9, 24 and 48 hours. Luciferase activity was measured using the Steady Glo Luciferase Assay System (Promega). The data shown in FIG. 3A is representative of 3 individual experiments.
Two different chemical libraries were screened for the ability to enhance BRCA1 gene expression. To examine the effects of each compound on BRCA1 expression, the human BRCA1 promoter was cloned and inserted upstream of the firefly luciferase gene in the plasmid pGL4.14 (BRCA1-Luc) (Promega), as described above. The ER positive human breast cancer cell line, MCF7, was transfected and stable transfectants were selected with hygromycin.
Briefly, compounds were plated in a 384 well plate in a total volume of 20 μl. A ten point dilution series was used at concentrations—100 µM, 10 μM, 1 μM, 100 nM, 10 nM, 1 nM, 0.1 nM, 0.01 nM, 0.0001 nM, 0 (DMSO vehicle only). A second dilution series of 100 μM, 32.5 μM, […], 3.6 μM, 1.2 μM, 400 nM, 132.2 nM, 45 nM, 14.8 nM, 5 nM, and 1.65 nM was also used. MCF7-BRCA1-luciferase cells were added to the compounds at a concentration of 1×10^4 cells/well in a volume of 25 μl. The 384 well plates, containing the compounds+cells, were then incubated at 37° C. for 48 hours. After 48 hours, luciferase activity was measured with the Steady-Glo® Luciferase Assay System (Promega, Madison, Wis.).

Data set [3] relates to BRCA1 protein. Kind of data set: BRCA1 protein expression in MCF7 cells by Western blot. It counts as cell-based, human. As to conditions: 48 hours, compared to DMSO. Here is the method:
Compounds 29 and 30 were studied for BRCA1 and actin (e.g., housekeeping gene for normalization) protein expression. Briefly, MCF7 cells (2×10^6) in 2 ml MEM were plated in a 6 well tissue culture plate and were either left nonstimulated or treated with DMSO (vehicle control), […] Genistein, or 3 different concentrations of indicated test compound—3.65 μM, […], 32.5 μM. Following incubation at 37° C. for 48 hours, the media was removed and the cells were washed 1× with 500 μl of ice cold PBS. Another 500 μl of ice cold PBS was then added and the cells were scraped off the well and transferred to a microcentrifuge tube. To ensure all cells were removed from the well, an additional […] of ice cold PBS was added to the well and any remaining cells were combined with the initial cell harvest into the microcentrifuge tube. The cells were then pelleted by centrifugation for 5 min at 3000 rpm, 4° C. The supernate was removed and the pellet was then lysed in 150 μl of ice cold RIPA buffer+1× protease inhibitors, on ice for 30 minutes, vortexing occasionally. The cellular debris was then removed by centrifugation for 20 minutes at 11,000 rpm, 4° C. The remaining supernate, containing the extracted proteins, was then transferred to a microcentrifuge tube and quantified using the Bio-Rad DC assay. 100 μg of protein+1×SDS-PAGE sample buffer was loaded onto an 8% Tris glycine gel. The proteins were separated in a tris glycine running buffer at 125 volts for 90 minutes. The proteins were then transferred out of the gel onto PVDF in an overnight transfer with 20% methanol at 35 volts, 4° C. The PVDF membrane was then blocked with 5% milk/PBST (0.1%) for 1 hour at room temperature (RT). BRCA1 protein was detected using anti-BRCA1 (Ab-1, EMD Biosciences) at a 1:250 dilution in 3% milk/PBST, overnight at 4° C. […] To monitor equal protein loading, actin was detected using anti-actin at a 1:200,000 dilution in 5% milk/PBST for 1 hr at RT. […] Chemiluminescence was detected using the SuperSignal West Femto kit made by Pierce Biotechnology and the UVP imaging center. […]

The subject of data set [4] is BRCA1 RNA. Kind of data set: BRCA1 RNA expression in MCF7 cells by qRT-PCR (TaqMan, 18S normalised). It counts as cell-based, human. As to conditions: 48 hours, 3.65-32.5 μM, compared to DMSO and genistein. Here is the method:
Compounds 29 and 30 were studied for BRCA1 and 18S (e.g., housekeeping gene for normalization) RNA expression. Briefly, MCF7 cells (2×10^6) in 2 ml MEM were plated in a 6 well tissue culture plate and were either left nonstimulated or treated with DMSO (vehicle control), 10 μM Genistein, or 3 different concentrations of indicated test compound—3.65 μM, 10.8 μM, 32.5 μM. Following incubation at 37° C. for 48 hours, the media was removed and RNA was extracted per manufacturer's protocol using the RNeasy Plus RNA extraction kit made by Qiagen. Complementary DNA (cDNA) was generated per manufacturer's protocol from 1000 ng extracted RNA in a 60 μl volume using the High Capacity cDNA kit made by Applied Biosystems. Gene expression of BRCA1 and 18S was detected with the TaqMan Gene Expression assay kit made by Applied Biosystems. […] The […] reaction was run on either the ABI real time system 7500 or 7000 (see, Analysis of Relative Gene Expression Data Using Real-Time Quantitative PCR and the 2^−ΔΔCT Method. Kenneth J. Livak^a and Thomas D. Schmittgen^b, 1. ^a Applied Biosystems, Foster City, Calif., 94404 ^b Department of Pharmaceutical Sciences, College of Pharmacy, Washington State University, Pullman, Wash., 99164-6534. Methods, Volume 25, Issue 4, December 2001, Pages 402-408).

On to `Oc1c(F)cccc1/C=N/c1ccc2oc(-c3ccccc3)nc2c1` [Cmpd 1], for which the “toxicity (cell viability) compared to genistein” value in data set [1] is “less toxic compared to genistein”. In data set [2], this molecule gave an EC50 of 6.82 µM and an EC90 of 54.9 µM.
Turning to `CC(C)(C)C(=O)Nc1cccc(C(=O)Nc2ccc(Cl)cc2)c1` [Cmpd 2], in data set [1], the “toxicity (cell viability) compared to genistein” value is listed as “less toxic compared to genistein”. In data set [2], this molecule registered an EC50 of 70.5 µM and an EC90 of 967 µM.
Regarding `Cc1ccc(OCC(=O)O/N=C(\N)c2ccccn2)c(C)c1` [Cmpd 29], in data set [3], the BRCA1 protein expression entry was “increase endogenous BRCA1”. Besides, in data set [4], the “BRCA1 RNA expression” value was “increase BRCA1 RNA expression”. Also, in data set [2], a half-maximal effect (EC50) was put at 8.49 µM and the EC90 is 91.8 µM.
As for `CCc1ccc(OCC(=O)O/N=C(\N)c2ccncc2)c(C)c1` [Cmpd 30], in data set [3], the BRCA1 protein expression result was “increase endogenous BRCA1”. The “BRCA1 RNA expression” value in data set [4] is “increase BRCA1 RNA expression”. In data set [2], the EC50 came to 4.13 µM and the EC90 turned out to be 55.4 µM.

(Values after patent publication US8362072B2, “BRCA1-based breast or ovarian cancer treatment agents and methods of use” (University of Kansas, priority 2007, dated 2013).)
